Results as given in PubChem BioAssay AID248 (DTP/NCI, 2004).
“And” between values parts separate entries of the source, which are not always exact repeats. Identical values can stand only once. Toxic doses and inconclusive results are not listed.

System: L1210 leukemia ip in BDF1 mice, survival T/C
Assay: NCI In Vivo Anticancer Drug Screen. Data for tumor model L1210 Leukemia (intraperitoneal) in B6D2F1 (BDF1) mice
Details: endpoint: mean survival time, higher = longer survival
In short: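 Tumor was transplanted into mice, which were then dosed with test compound or vehicle alone. Survival was recorded for each group, and the treated figure was expressed relative to the control figure.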

[1] = dose: 25.0 mg/kg/injection, schedule: Q01DX009 (ip), vehicle: saline
[2] = dose: 50.0 mg/kg/injection, schedule: Q01DX009 (ip), vehicle: saline
[3] = dose: 100.0 mg/kg/injection, schedule: Q04DX003 (ip), vehicle: Klucel (hydroxypropylcellulose) (HPC)
[4] = dose: 100.0 mg/kg/injection, schedule: Q01DX001 (ip), vehicle: carboxymethylcellulose (CMC)
[5] = dose: 200.0 mg/kg/injection, schedule: Q01DX001 (ip), vehicle: carboxymethylcellulose (CMC)
[6] = dose: 400.0 mg/kg/injection, schedule: Q01DX001 (ip), vehicle: carboxymethylcellulose (CMC)
[7] = dose: 100.0 mg/kg/injection, schedule: Q01DX001 (ip), vehicle: Klucel (hydroxypropylcellulose) (HPC)
[8] = dose: 100.0 mg/kg/injection, schedule: Q01DX009 (ip), vehicle: gum acacia
[9] = dose: 200.0 mg/kg/injection, schedule: Q01DX001 (ip), vehicle: Klucel (hydroxypropylcellulose) (HPC)
[10] = dose: 200.0 mg/kg/injection, schedule: Q01DX009 (ip), vehicle: gum acacia
[11] = dose: 400.0 mg/kg/injection, schedule: Q01DX001 (ip), vehicle: Klucel (hydroxypropylcellulose) (HPC)
[12] = dose: 400.0 mg/kg/injection, schedule: Q01DX009 (ip), vehicle: gum acacia
[13] = dose: 100.0 mg/kg/injection, schedule: Q01DX001 (ip), vehicle: saline
[14] = dose: 200.0 mg/kg/injection, schedule: Q01DX001 (ip), vehicle: saline
[15] = dose: 400.0 mg/kg/injection, schedule: Q01DX001 (ip), vehicle: saline
[16] = dose: 100.0 mg/kg/injection, schedule: Q01DX009 (ip), vehicle: Klucel (hydroxypropylcellulose) (HPC)
[17] = dose: 200.0 mg/kg/injection, schedule: Q01DX009 (ip), vehicle: Klucel (hydroxypropylcellulose) (HPC)
[18] = dose: 200.0 mg/kg/injection, schedule: Q04DX003 (ip), vehicle: Klucel (hydroxypropylcellulose) (HPC)
[19] = dose: 400.0 mg/kg/injection, schedule: Q01DX009 (ip), vehicle: Klucel (hydroxypropylcellulose) (HPC)
[20] = dose: 400.0 mg/kg/injection, schedule: Q04DX003 (ip), vehicle: Klucel (hydroxypropylcellulose) (HPC)
[21] = dose: 12.5 mg/kg/injection, schedule: Q01DX009 (ip), vehicle: saline
[22] = dose: 25.0 mg/kg/injection, schedule: Q04DX003 (ip), vehicle: saline
[23] = dose: 50.0 mg/kg/injection, schedule: Q04DX003 (ip), vehicle: saline

Compound: O=c1ccc2c([nH]1)CCC2
- T/C [1]: 111 % of control
- T/C (dose: 25.0 mg/kg/injection, schedule: Q04DX003 (ip), vehicle: saline with Tween-80): 94 % of control
- T/C [2]: 121 % of control
- T/C (dose: 50.0 mg/kg/injection, schedule: Q04DX003 (ip), vehicle: saline with Tween-80): 98 % of control
- T/C (dose: 100.0 mg/kg/injection, schedule: Q01DX009 (ip), vehicle: saline): 101 % of control
- T/C [3]: 100 % of control
- T/C (dose: 100.0 mg/kg/injection, schedule: Q04DX003 (ip), vehicle: saline with Tween-80): 94 % of control

Compound: O=S(=O)(O)SCCCNc1ncnc2ccccc12
- T/C [4]: 107 % of control
- T/C [5]: 105 % of control
- T/C [6]: 102 % of control

Compound: CC1(C)CCC(C)(C)C(=O)C1=O
- T/C (dose: 10.0 mg/kg/injection, schedule: Q01DX009 (ip), vehicle: Klucel (hydroxypropylcellulose) (HPC)): 105 % of control
- T/C (dose: 10.0 mg/kg/injection, schedule: Q04DX003 (ip), vehicle: Klucel (hydroxypropylcellulose) (HPC)): 97 % of control
- T/C (dose: 20.0 mg/kg/injection, schedule: Q01DX001 (ip), vehicle: Klucel (hydroxypropylcellulose) (HPC)): 103 % of control
- T/C (dose: 20.0 mg/kg/injection, schedule: Q01DX009 (ip), vehicle: Klucel (hydroxypropylcellulose) (HPC)): 89 % of control
- T/C (dose: 20.0 mg/kg/injection, schedule: Q04DX003 (ip), vehicle: Klucel (hydroxypropylcellulose) (HPC)): 102 % of control
- T/C (dose: 40.0 mg/kg/injection, schedule: Q01DX001 (ip), vehicle: Klucel (hydroxypropylcellulose) (HPC)): 102 % of control
- T/C (dose: 40.0 mg/kg/injection, schedule: Q01DX009 (ip), vehicle: Klucel (hydroxypropylcellulose) (HPC)): 89 % of control
- T/C (dose: 40.0 mg/kg/injection, schedule: Q04DX003 (ip), vehicle: Klucel (hydroxypropylcellulose) (HPC)): 100 % of control

Compound: O=COC1CC2CCC1C2 (stereo not drawn)
- T/C (dose: 100.0 mg/kg/injection, schedule: Q04DX002 (ip), vehicle: saline): 95 % of control
- T/C (dose: 200.0 mg/kg/injection, schedule: Q04DX002 (ip), vehicle: saline): 98 % of control
- T/C (dose: 400.0 mg/kg/injection, schedule: Q04DX002 (ip), vehicle: saline): 100 % of control

Compound: O=S(Sc1ccc(N(CCCl)CCCl)cc1)c1ccc(N(CCCl)CCCl)cc1 (stereo not drawn)
- T/C [7]: 95 % of control
- T/C [8]: 86 % of control
- T/C [9]: 108 % of control
- T/C [10]: 93 % of control
- T/C [11]: 93 % of control
- T/C [12]: 122 % of control

Compound: O=C(NO)c1cccc(C(=O)NO)n1
- T/C (dose: 237.0 mg/kg/injection, schedule: Q01DX015 (ip), vehicle: water): 113 % of control
- T/C (dose: 356.0 mg/kg/injection, schedule: Q01DX015 (ip), vehicle: water): 114 % of control
- T/C (dose: 533.0 mg/kg/injection, schedule: Q01DX015 (ip), vehicle: water): 104 % of control

Compound: COC(=O)C(CCC(=O)C=[N+]=N)NC(=O)C(Cl)Cl (stereo not drawn)
- T/C (dose: 35.0 mg/kg/injection, schedule: Q01DX001 (ip), vehicle: saline): 122 % of control
- T/C (dose: 75.0 mg/kg/injection, schedule: Q01DX001 (ip), vehicle: saline): 122 % of control
- T/C (dose: 125.0 mg/kg/injection, schedule: Q01DX001 (ip), vehicle: saline): 111 % of control
- T/C (dose: 200.0 mg/kg/injection, schedule: Q04DX003 (ip), vehicle: saline with Tween-80): 167 % of control
- T/C (dose: 266.0 mg/kg/injection, schedule: Q01DX001 (ip), vehicle: saline): 98 % of control
- T/C (dose: 400.0 mg/kg/injection, schedule: Q04DX003 (ip), vehicle: saline with Tween-80): 124 % of control
- T/C (dose: 600.0 mg/kg/injection, schedule: Q01DX001 (ip), vehicle: saline): 117 % of control

Compound: COC1CC(OS(=O)(=O)c2ccc(C)cc2)C(OS(=O)(=O)c2ccc(C)cc2)C(C)O1 (stereo not drawn)
- T/C [13]: 100 % of control
- T/C [14]: 98 % of control
- T/C [15]: 98 % of control

Compound: CCc1cc(S(=O)(=O)O)c(CC)c(CC)c1CC
- T/C (dose: 100.0 mg/kg/injection, schedule: Q01DX009 (ip), vehicle: saline with Tween-80): 97 % of control

Compound: O=C1C(=O)c2cc(Cl)ccc2-c2ccccc21
- T/C (dose: 50.0 mg/kg/injection, schedule: Q01DX001 (ip), vehicle: carboxymethylcellulose (CMC)): 100 % of control
- T/C [4]: 102 % of control
- T/C [5]: 100 % of control
- T/C [6]: 105 % of control

Compound: C/C(=N\N=C(/C)c1cccc([N+](=O)[O-])c1)c1cccc([N+](=O)[O-])c1
- T/C (dose: 100.0 mg/kg/injection, schedule: Q01DX001 (ip), vehicle: other): 100 % of control
- T/C (dose: 200.0 mg/kg/injection, schedule: Q01DX001 (ip), vehicle: other): 100 % of control
- T/C (dose: 400.0 mg/kg/injection, schedule: Q01DX001 (ip), vehicle: other): 97 % of control

Compound: CC(=O)OC1CCC2(C)C(C1)CC(OC(C)=O)C1C2CCC2(C)C(C(C)CCC(=O)O)CCC12 (stereo not drawn)
- T/C (dose: 100.0 mg/kg/injection, schedule: Q01DX001 (ip), vehicle: saline with Tween-80): 92 % of control
- T/C (dose: 200.0 mg/kg/injection, schedule: Q01DX001 (ip), vehicle: saline with Tween-80): 97 % of control
- T/C (dose: 400.0 mg/kg/injection, schedule: Q01DX001 (ip), vehicle: saline with Tween-80): 92 % of control

Compound: O=C1OC(c2ccccc2)(c2ccccc2)c2ccccc21
- T/C [16]: 93 % of control
- T/C [3]: 107 % of control
- T/C [17]: 101 % of control
- T/C [18]: 102 % of control
- T/C [19]: 88 % of control
- T/C [20]: 100 % of control

Compound: O=[N+]([O-])c1cccc(C=Nc2cc(Cl)ccc2Cl)c1
- T/C (dose: 75.0 mg/kg/injection, schedule: Q04DX003 (ip), vehicle: Klucel (hydroxypropylcellulose) (HPC)): 106 % of control
- T/C [7]: 101 % of control
- T/C (dose: 150.0 mg/kg/injection, schedule: Q04DX003 (ip), vehicle: Klucel (hydroxypropylcellulose) (HPC)): 95 % of control
- T/C [9]: 107 % of control
- T/C (dose: 300.0 mg/kg/injection, schedule: Q04DX003 (ip), vehicle: Klucel (hydroxypropylcellulose) (HPC)): 98 % of control
- T/C [11]: 102 % of control

Compound: C1CC23CSCC12CSC3 (stereo not drawn)
- T/C [13]: 103 % of control
- T/C [14]: 111 % of control
- T/C [15]: 108 % of control

Compound: Cc1ccc(C)c(NC(=O)Nc2ccc(Cl)cc2)c1
- T/C [8]: 96 % of control
- T/C (dose: 100.0 mg/kg/injection, schedule: Q04DX003 (ip), vehicle: gum acacia): 98 % of control
- T/C [10]: 100 % of control
- T/C (dose: 200.0 mg/kg/injection, schedule: Q04DX003 (ip), vehicle: gum acacia): 90 % of control
- T/C [12]: 96 % of control
- T/C (dose: 400.0 mg/kg/injection, schedule: Q04DX003 (ip), vehicle: gum acacia): 95 % of control

Compound: CCOC(=O)Cc1cnc(C)[nH]c1=O
- T/C [16]: 95 % of control
- T/C [17]: 101 % of control
- T/C [19]: 96 % of control

Compound: CC(C)(CS(C)(=O)=O)C(=O)OCC(=O)c1ccccc1
- T/C [3]: 108 % of control
- T/C [18]: 105 % of control
- T/C [20]: 105 % of control

Compound: CC(N)Cc1ccc2c(c1)OCO2 (stereo not drawn)
- T/C (dose: 6.0 mg/kg/injection, schedule: Q01DX009 (ip), vehicle: saline): 104 % of control
- T/C (dose: 6.25 mg/kg/injection, schedule: Q01DX009 (ip), vehicle: saline): 103 % of control
- T/C (dose: 12.0 mg/kg/injection, schedule: Q01DX009 (ip), vehicle: saline): 98 % of control
- T/C [21]: 93 % of control
- T/C [1]: 106 % of control and 98 % of control and 102 % of control
- T/C [22]: 103 % of control and 96 % of control
- T/C [2]: 108 % of control
- T/C [23]: 103 % of control and 97 % of control
- T/C [3]: 93 % of control
- T/C (dose: 100.0 mg/kg/injection, schedule: Q04DX003 (ip), vehicle: saline): 110 % of control

Compound: C[N+](C)(C)C1CC1
- T/C [21]: 94 % of control
- T/C [1]: 98 % of control
- T/C [22]: 93 % of control
- T/C [2]: 96 % of control and 102 % of control
- T/C [23]: 103 % of control
